This is an account of results in patent publication US9868758B2, “Betulinic proline imidazole derivatives as HIV inhibitors” (HETERO LABS LIMITED, priority 2014, dated 2018).

The nature of one data set: Cyto-toxicity, MTT assay. It counts as cell-based. Particulars: read-out: Cytotoxicity % viability.
For data set [1], the system named is HIV-1 strains, for e.g., 92HT599. Kind of data set: Antiviral activity: p24 estimation in HIV-1 infected MT-2 cells. Particulars: Human immunodeficiency virus 1, MT2, MT-2 cells; for inhibition at 0.01 µM / inhibition at 0.1 µM / inhibition at 1 µM: p24, ~96 hours; for IC50: p24, read-out: Antiviral activity IC50. The class given is cell-based. As to the method:
MT-2 cells were infected with required number of TCID50's of HIV-1 strains, for e.g., 92HT599. The infected cells were plated at the concentration of 30,000 cells per well in a 96 well plate. Test compound was added to the 96 well plate with the final concentration of DMSO (vehicle—not more than 1%). The plates are then incubated in a CO2 incubator for ˜96 hours (˜4 days) for viral infection. At the end of incubation period an aliquot from each well was taken for p24 estimation. The quantitation of p24 is an estimated index for antiviral activity of the compound. Percent inhibition was calculated with reference to control values (vehicle controls).
p-24 estimation was carried out using Advance biosciences kit as per the procedure detailed by supplier.

Data set [2] in a line: Single dose oral pharmacokinetic study. Particulars: mouse, in vivo, po, 30 mg/kg. On the set-up: species or system mice. On the procedure: The test item was administered through oral route to animals (rat/mice) at 30 mg/kg dose in a suitable vehicle at 10 ml/kg dose volume. Blood samples (˜50 uL at each time point) were collected from retro-orbital plexus using K3 EDTA as anticoagulant in eppendorf tubes at defined time intervals under light ether anesthesia. The samples were centrifuged at 3500×g to separate plasma and stored at −80° C. until analysis.
Sample analysis: Test samples were analyzed using LC-MS-MS after developing fit-for-purpose method for each of test compound.

Experimental for Cyto-toxicity, MTT assay: On day 1 calculate the number of cells required for the assay and seed 3×10^4 cells in 200 μl per well. Weigh the compound and dissolve it in DMSO to get 10 mM stock which is further diluted to 3 mM and 1 mM. The drugs from these stocks were added to plate to get final concentration of 100 μM, 30 μM and 10 μM. […] Incubate for 4 days in 5% CO2 incubator at 37° C. On day 4, 100 μl of medium was removed from each well without disturbing the cells. Add 10 μl of MTT reagent and incubate for 4 hours at 5% CO2 incubator at 37° C. for formation of crystals. Add 200 μl of 0.1N acidic isopropanol to dissolve the crystals and read the plate at 590 nm.

In general, viability refers to the share of living cells, or the viability signal relative to a control. Broadly, the inhibition is the percentage by which the read-out fell short of the control. The IC50 is the concentration needed to halve the response being measured. For orientation: AUC(0-t) means the area under the concentration-time curve up to a stated or last time point. Low values mean low exposure, high ones high exposure. A word on the Cmax: it is the maximum level reached in the sampled fluid or tissue. Take `C=C(C)[C@@H]1CC[C@]2(C(=O)N3C[C@H](OCCOC)C[C@H]3c3nc(-c4ccccc4)cn3CCN3CCCC3)CC[C@]3(C)[C@H](CC[C@@H]4[C@@]5(C)CC[C@H](OC(=O)[C@H]6C[C@@H](C(=O)O)C6(C)C)C(C)(C)[C@@H]5CC[C@]43C)[C@@H]12` [Compound 27, (1R,3S)-3-((((1R,3aS,5aR,5bR,7aR,9S,11aR,11bR,13aR,13bR)-3a-((2S,4R)-4-(2-methoxyethoxy)-2-(4-phenyl-1-(2-(pyrrolidin-1-yl)ethyl)-1H-imidazol-2-yl)pyrrolidine-1-carbonyl)-5a,5b,8,8,11a-pentamethyl-1-(prop-1-en-2-yl)icosahydro-1H-cyclopenta[a]chrysen-9-yl)oxy)carbonyl)-2,2-dimethylcyclobutane-1-carboxylic acid]: in the data set “Cyto-toxicity, MTT assay”, the viability at 4 days, 0.01 µM was 60%; the viability at 4 days, 0.1 µM was found to be 24%; the viability at 4 days, 1 µM is 8%. In data set [1], the inhibition at 0.01 µM was 0%, the inhibition at 0.1 µM was 100%, the inhibition at 1 µM was 100% and the IC50 is 34 nM. In data set [2], this compound gave an AUC(0-t) of 355 µg·h/mL and a Cmax of 10900 ng/mL.

`C=C(C)[C@@H]1CC[C@]2(C(=O)N3CCC[C@H]3c3nc4ccccc4n3CCN(C)C)CC[C@]3(C)[C@H](CC[C@@H]4[C@@]5(C)CC[C@H](OC(=O)[C@H]6C[C@@H](C(=O)O)C6(C)C)C(C)(C)[C@@H]5CC[C@]43C)[C@@H]12` [Compound 29, (1R,3S)-3-((((1R,3aS,5aR,5bR,7aR,9S,11aR,11bR,13aR,13bR)-3a-((S)-2-(1-(2-(dimethylamino)ethyl)-1H-benzo[d]imidazol-2-yl)pyrrolidine-1-carbonyl)-5a,5b,8,8,11a-pentamethyl-1-(prop-1-en-2-yl)icosahydro-1H-cyclopenta[a]chrysen-9-yl)oxy)carbonyl)-2,2-dimethylcyclobutane-1-carboxylic acid]: in the data set “Cyto-toxicity, MTT assay”, the viability at 4 days, 0.01 µM was 31%; the viability at 4 days, 0.1 µM was 1%; the viability at 4 days, 1 µM turned out to be 5%. Moreover, in data set [1], the inhibition at 0.01 µM was 0%, the inhibition at 0.1 µM is 100%, the inhibition at 1 µM is 100% and the IC50 is 9.76 nM. In data set [2], this compound came in with an area under the curve AUC(0-t) of 491 µg·h/mL and a Cmax of 14900 ng/mL.

For the compound `C=C(C)[C@@H]1CC[C@]2(C(=O)N3C[C@H](OCCOC)C[C@H]3c3nc(-c4cccc(F)c4)cn3CCN3CCCC3)CC[C@]3(C)[C@H](CC[C@@H]4[C@@]5(C)CC[C@H](OC(=O)[C@H]6C[C@@H](C(=O)O)C6(C)C)C(C)(C)[C@@H]5CC[C@]43C)[C@@H]12` [Compound 28, (1R,3S)-3-((((1R,3aS,5aR,5bR,7aR,9S,11aR,11bR,13aR,13bR)-3a-((2S,4R)-2-(4-(3-fluorophenyl)-1-(2-(pyrrolidin-1-yl)ethyl)-1H-imidazol-2-yl)-4-(2-methoxyethoxy)pyrrolidine-1-carbonyl)-5a,5b,8,8,11a-pentamethyl-1-(prop-1-en-2-yl)icosahydro-1H-cyclopenta[a]chrysen-9-yl)oxy)carbonyl)-2,2-dimethylcyclobutane-1-carboxylic acid], in “Cyto-toxicity, MTT assay”, the viability at 4 days, 0.01 µM came out at 65%; the viability at 4 days, 0.1 µM was determined as 19%; the viability at 4 days, 1 µM worked out at 6%. Moreover, in data set [1], the inhibition at 0.01 µM was 13%, the inhibition at 0.1 µM is 98%, the inhibition at 1 µM was 100% and the 50% inhibitory concentration (IC50) is 39.6 nM. In data set [2], this compound registered an area under the curve AUC(0-t) of 293 µg·h/mL and a Cmax of 7300 ng/mL.

In the case of `C=C(C)[C@@H]1CC[C@]2(C(=O)N3CCC[C@H]3c3nc4ccccc4n3CCN3CCCC3)CC[C@]3(C)[C@H](CC[C@@H]4[C@@]5(C)CC[C@H](OC(=O)[C@H]6C[C@@H](C(=O)O)C6(C)C)C(C)(C)[C@@H]5CC[C@]43C)[C@@H]12` [Compound 30, (1R,3S)-2,2-dimethyl-3-((((1R,3aS,5aR,5bR,7aR,9S,11aR,11bR,13aR,13bR)-5a,5b,8,8,11a-pentamethyl-1-(prop-1-en-2-yl)-3a-((S)-2-(1-(2-(pyrrolidin-1-yl)ethyl)-1H-benzo[d]imidazol-2-yl)pyrrolidine-1-carbonyl)icosahydro-1H-cyclopenta[a]chrysen-9-yl)oxy)carbonyl)cyclobutane-1-carboxylic acid], in the data set “Cyto-toxicity, MTT assay”, the viability at 4 days, 0.01 µM was determined as 33%; the viability at 4 days, 0.1 µM was determined as 3%; the viability at 4 days, 1 µM was determined as 5%. In addition, in data set [1], the inhibition at 0.01 µM was 71%, the inhibition at 0.1 µM is 100%, the inhibition at 1 µM is 100% and the IC50 was 10.2 nM. In data set [2], this compound showed an area under the curve AUC(0-t) of 546 µg·h/mL and a Cmax of 14800 ng/mL.

Turning to `C=C(C)[C@@H]1CC[C@]2(C(=O)N3C[C@H](OCCOC)C[C@H]3c3nc(-c4ccccc4)cn3CCC(C)C)CC[C@]3(C)[C@H](CC[C@@H]4[C@@]5(C)CC[C@H](OC(=O)[C@H]6C[C@@H](C(=O)O)C6(C)C)C(C)(C)[C@@H]5CC[C@]43C)[C@@H]12` [Compound 26, (1R,3S)-3-((((1R,3aS,5aR,5bR,7aR,9S,11aR,11bR,13aR,13bR)-3a-((2S,4R)-2-(1-isopentyl-4-phenyl-1H-imidazol-2-yl)-4-(2-methoxyethoxy)pyrrolidine-1-carbonyl)-5a,5b,8,8,11a-pentamethyl-1-(prop-1-en-2-yl)icosahydro-1H-cyclopenta[a]chrysen-9-yl)oxy)carbonyl)-2,2-dimethylcyclobutane-1-carboxylic acid], in the data set “Cyto-toxicity, MTT assay” (10 μM), the viability at 4 days, 10 µM came to 77%. In the data set “Cyto-toxicity, MTT assay” (30 μM), the viability at 4 days, 30 µM stood at 54%. The viability at 4 days, 100 µM in the data set “Cyto-toxicity, MTT assay” (100 μM) stood at 9%. For the same compound, in data set [1], the inhibition at 0.01 µM was 0%, the inhibition at 0.1 µM was 15% and the inhibition at 1 µM was 99%.
